According to patent US20030045524A1, “Alpha-2-adrenergic agonist/fatty acid compositions” (priority 2001, published 2003):
Where two headings read alike, the source gives them in different places.

Experiments:
[1] = tested on: Rabbit Intraocular Pressure; conditions: 0.2% complex; for INTRAOCULAR PRESSURE: mean, n=8
Experimental: In this study, the animals were placed into three groups consisting of a mix of age, size and sex.
One group of animals (both sexes) was used per screening study. The test compound (20 L of 0.2% bromonidine-linoleic acid ion pair complex) was administered to the surface of the cornea using an automatic pipette or an appropriate device.
The following general procedure for administering the test compound employed in this study is presented below:
1. Make sure that the 0.25% proparacaine Opthetic5 mixture (topical local anesthetic), test compounds, and commercially available treats are available.
2. Turn on the Digilab Modular One J Pneuma Tonometer (pneumatonometer) [BioRad, Cambridge, Mass.]; it needs approximately 15 minutes to warm up. Turn on gas supply or air pump.
3. Hold probe vertically with the point tip down and press “calibration check” for “zero”.
4. Wipe the pneumatonometer probe with an alcohol swab, and inspect the tip membrane for holes.
5. Set the external calibration device (air or water manometer) to 25 mm Hg, place the pneumatonometer probe in the calibration device to ensure that it corresponded to 25 2 mm Hg.
6. Obtain a rabbit. Make sure the recording data sheets are at hand.
7. Gently restrain the rabbit via a commercial restrainer or a cotton towel. Measure the pupil diameter with the specialized ruler for each eye and record the values on the sheets provided. If the eyes are too dark to obtain a value by this method, a specialized penlight may be used. Obtain a pupil diameter measurement by shining the penlight on the cornea for one second.
8. Slide the upper eyelid up with the thumb and visually assess and score the degree of ocular surface redness. Record the value for each eye on the sheet provided.
9. Put one drop of 0.25% proparacaine Opthetic5 (50:50 mix of 0.5% proparacaine Opthetic5+Cellufresh5) on the surface of each eye. Wait one or more minutes for ophthetic to take effect.
10. Place the pnematonometer tip on one eye at the site where the curvature of the cornea is greatest. Let the probe shank travel to the black line, not the red line. Persist until a stable reading with the standard deviation below 1.0 is obtained. Repeat the procedure for the contralateral eye. Record the data. (Note: If the animal is upset by the restraint, the reading will be artificially high and cannot be used. Use gentle restraint).
11. At the end of the 0, 6, 24, 30, 48, 54, 72, 78 and 96 hour measurements, use an automatic pipette to apply 20 L of the test compound to the surface of the cornea of one eye. After the 102 hour measurements, the eyes will be washed out with Refresh5 and Prefrin5.
12. Give the animal a treat and return the animal to its cage.
13. Repeat steps 7 to 11 on the remaining animals in the group.
The following general procedure for measuring the effects of the test compound employed in this study is as follows: a reading is conducted at 0, 2, 4, 6, 24, 26, 28, 30, 48, 50, 52, 54, 72, 74, 76, 78, 96, 98, 100, and 102 hours. The pneumatonometer is calibrated before use with a manometer and the probe tip is wiped with an alcohol swab. One drop of 0.25% proparacaine Opthetic5, a corneal anesthetic, is placed on the cornea. Allow sufficient time (approximately 1 minute) for it to anesthetize the cornea before placing the probe on the eye. The eye is gently opened by the person doing the tonometer reading. The probe is placed on the cornea at the point of greatest curvature and a stable reading is obtained. The probe is held parallel to the floor and perpendicular to the line of the rabbit's sight. The reading is repeated until a reasonable reading can be obtained. The piston should be between the red and black lines or at the black line on the probe.
Values are mean S.E.M. n=8.

[2] = tested on: Intra Ocular Pressure; conditions: ion pair formulation of 0.131% bromonidine and 0.126% linoleic acid
Text: The complex is an ion pair formulation of 0.131% bromonidine and 0.126% linoleic acid.

[3] = tested on: monkeys; conditions: average of 6 monkeys, 0.2%, scale S=0 to 4
Experimental: The relative sedative effects of bromonidine-linoleic acid (compound 65) were compared to saline (compound 62) and brimonidine tartrate (compound 60). This study involved cross overs and a one-week wash out in between the administration of the various compounds.
As done in a previous experiment, the following method was followed:
1. 6 trained monkeys were placed in chairs and allowed to acclimate for approximately 30 minutes.
2. Individual monkeys were brought into the “testing room” where they were allowed to adjust to the new environment for approximately 2 minutes. […] Sedation scores were recorded on an observation sheet.
3. The monkey was returned to the group of animals assigned to this study.
4. 2 baseline readings were done at T−0.5 and 0 hour. After the 0 hour reading one drop of the test compound was administered to the right eye.
5. Steps 2 & 3 were repeated at T=0.5, 1, 2, 3 and 4 hour.
6. Animals were monitored until they recover from effects of the drug.
5. Scoring of Sedation was based on the following scale:
S=0 Monkey is quiet, but slightly active.
S=1 Monkey is quiet, easy to handle for reading
S=2 Monkey is quiet, relaxed but very low in activity
S=3 Monkey is blinking eyes and yawning
8. The test compounds were coded: 62-Saline, […].
9. Test Compound Administration:
The scoring was conducted for each animal for the different test compounds. The average results are shown on table 1.

Brc1c(NC2=NCCN2)ccc2nccnc12.CCCCC/C=C\C/C=C\CCCCCCCC(=O)O
time for which intraocular pressure in a rabbit's eye is reduced ([1]; after administration): at least 6 hours | duration of the effect of the complex on intraocular pressure ([1]; after administration at time 6 hr): less than 18 hrs | INTRAOCULAR PRESSURE ([1]; time 0 hr (initial, dosed after reading)): 25.8 mmHg | INTRAOCULAR PRESSURE ([1]; time 2 hr): 17.1 mmHg | INTRAOCULAR PRESSURE ([1]; time 4 hr): 21.1 mmHg | INTRAOCULAR PRESSURE ([1]; time 6 hr (dosed after reading)): 23.9 mmHg | INTRAOCULAR PRESSURE ([1]; time 24 hr (dosed after reading)): 25.6 mmHg | INTRAOCULAR PRESSURE ([1]; time 26 hr): 19.9 mmHg | INTRAOCULAR PRESSURE ([1]; time 28 hr): 22.9 mmHg | INTRAOCULAR PRESSURE ([1]; time 30 hr (dosed after reading)): 23.0 mmHg | INTRAOCULAR PRESSURE ([1]; time 48 hr (dosed after reading)): 26.5 mmHg | INTRAOCULAR PRESSURE ([1]; time 50 hr): 20.4 mmHg | INTRAOCULAR PRESSURE ([1]; time 52 hr): 23.4 mmHg | INTRAOCULAR PRESSURE ([1]; time 54 hr (dosed after reading)): 24.1 mmHg | INTRAOCULAR PRESSURE ([1]; time 72 hr (dosed after reading)): 26.8 mmHg | INTRAOCULAR PRESSURE ([1]; time 74 hr): 21.1 mmHg | INTRAOCULAR PRESSURE ([1]; time 76 hr): 23.9 mmHg | INTRAOCULAR PRESSURE ([1]; time 78 hr (dosed after reading)): 25.2 mmHg | INTRAOCULAR PRESSURE ([1]; time 96 hr (dosed after reading)): 27.9 mmHg | INTRAOCULAR PRESSURE ([1]; time 98 hr): 20.1 mmHg | INTRAOCULAR PRESSURE ([1]; time 100 hr): 23.9 mmHg | INTRAOCULAR PRESSURE ([1]; time 102 hr): 25.3 mmHg | percent change of Intra Ocular Pressure ([2]; 1 hr after administration at time 0): −10.4% | percent change of Intra Ocular Pressure ([2]; 2 hr after administration at time 0): −16.0% | percent change of Intra Ocular Pressure ([2]; 4 hr after administration at time 0): −09.5% | percent change of Intra Ocular Pressure ([2]; 6 hr after administration at time 0): −09.4%

brimonidine tartrate [reference compound]
SEDATION SCORE ([3]; time 0 hr (baseline, before dosing)): 0.8 | SEDATION SCORE ([3]; time 0.5 hr after one drop to right eye): 0.8 | SEDATION SCORE ([3]; time 1 hr after one drop to right eye): 1.7 | SEDATION SCORE ([3]; time 2 hr after one drop to right eye): 2.6 | SEDATION SCORE ([3]; time 3 hr after one drop to right eye): 2.5 | SEDATION SCORE ([3]; time 4 hr after one drop to right eye): 2.7 | SEDATION SCORE ([3]; time −0.5 hr (baseline, before dosing)): 0.7
